{"source": "paper PMC12645437", "about": "“Orthogonal IMiD-Degron Pairs Induce Selective Protein Degradation in Cells” (ACS Chemical Biology, 2025)", "key": {"[1]": {"target": "T1, ZF-EGFP fusion protein with the HEIP, AEVK, WEIS, or WT ZF degron (Homo sapiens, UniProt Q9UKT9, N149E/Q147H/Q150I/S154P)", "T1 construct": "The degron spans residues 130–189 of IKZF3; expressed in transfected cells; host or cells: Jurkat, lentivirally transduced, presorted mCherry+", "assay": "Western blot for ZF-EGFP fusion protein", "format": "cell-based", "settings": "transduced Jurkat, 18 h"}, "[2]": {"target": "T2, ZF-EGFP fusion protein with the HEIP, AEVK, WEIS, or WT ZF degron (Homo sapiens, UniProt Q9UKT9, N149E/Q147A/Q150V/S154K)", "T2 construct": "The degron spans residues 130–189 of IKZF3; expressed in transfected cells; host or cells: Jurkat, lentivirally transduced, presorted mCherry+", "assay": "Western blot for ZF-EGFP fusion protein", "format": "cell-based", "settings": "transduced Jurkat, 18 h"}, "[3]": {"target": "AEVK mutant ZF degron fused to EGFP (Homo sapiens, UniProt Q96SW2+Q9UKT9, N149E/Q147A/Q150V/S154K)", "assay": "Ratiometric EGFP:mCherry flow cytometry degradation assay, 18 h"}, "[4]": {"target": "FEVP mutant ZF degron fused to EGFP (Homo sapiens, UniProt Q96SW2+Q9UKT9, N149E/Q147F/Q150V/S154P)", "sequence (Q9UKT9 130-189 Q147F/N149E/Q150V/S154P)": "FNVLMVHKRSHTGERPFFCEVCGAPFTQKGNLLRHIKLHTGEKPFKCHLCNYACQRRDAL", "sequence (Q96SW2 whole entry, the tested form may be a part)": "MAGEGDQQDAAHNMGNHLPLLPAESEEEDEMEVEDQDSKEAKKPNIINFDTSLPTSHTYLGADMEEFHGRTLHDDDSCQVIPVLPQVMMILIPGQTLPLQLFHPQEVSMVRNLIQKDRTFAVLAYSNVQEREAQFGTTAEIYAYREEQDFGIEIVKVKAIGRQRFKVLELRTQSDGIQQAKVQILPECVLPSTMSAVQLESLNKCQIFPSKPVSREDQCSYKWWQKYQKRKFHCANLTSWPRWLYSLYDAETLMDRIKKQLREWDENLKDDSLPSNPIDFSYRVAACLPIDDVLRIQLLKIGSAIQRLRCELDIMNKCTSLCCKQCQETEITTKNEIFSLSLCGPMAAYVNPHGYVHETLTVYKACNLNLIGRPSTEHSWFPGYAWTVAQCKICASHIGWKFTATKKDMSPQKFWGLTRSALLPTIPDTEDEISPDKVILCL", "sequence (Q16531 whole entry partner, the tested form may be a part)": "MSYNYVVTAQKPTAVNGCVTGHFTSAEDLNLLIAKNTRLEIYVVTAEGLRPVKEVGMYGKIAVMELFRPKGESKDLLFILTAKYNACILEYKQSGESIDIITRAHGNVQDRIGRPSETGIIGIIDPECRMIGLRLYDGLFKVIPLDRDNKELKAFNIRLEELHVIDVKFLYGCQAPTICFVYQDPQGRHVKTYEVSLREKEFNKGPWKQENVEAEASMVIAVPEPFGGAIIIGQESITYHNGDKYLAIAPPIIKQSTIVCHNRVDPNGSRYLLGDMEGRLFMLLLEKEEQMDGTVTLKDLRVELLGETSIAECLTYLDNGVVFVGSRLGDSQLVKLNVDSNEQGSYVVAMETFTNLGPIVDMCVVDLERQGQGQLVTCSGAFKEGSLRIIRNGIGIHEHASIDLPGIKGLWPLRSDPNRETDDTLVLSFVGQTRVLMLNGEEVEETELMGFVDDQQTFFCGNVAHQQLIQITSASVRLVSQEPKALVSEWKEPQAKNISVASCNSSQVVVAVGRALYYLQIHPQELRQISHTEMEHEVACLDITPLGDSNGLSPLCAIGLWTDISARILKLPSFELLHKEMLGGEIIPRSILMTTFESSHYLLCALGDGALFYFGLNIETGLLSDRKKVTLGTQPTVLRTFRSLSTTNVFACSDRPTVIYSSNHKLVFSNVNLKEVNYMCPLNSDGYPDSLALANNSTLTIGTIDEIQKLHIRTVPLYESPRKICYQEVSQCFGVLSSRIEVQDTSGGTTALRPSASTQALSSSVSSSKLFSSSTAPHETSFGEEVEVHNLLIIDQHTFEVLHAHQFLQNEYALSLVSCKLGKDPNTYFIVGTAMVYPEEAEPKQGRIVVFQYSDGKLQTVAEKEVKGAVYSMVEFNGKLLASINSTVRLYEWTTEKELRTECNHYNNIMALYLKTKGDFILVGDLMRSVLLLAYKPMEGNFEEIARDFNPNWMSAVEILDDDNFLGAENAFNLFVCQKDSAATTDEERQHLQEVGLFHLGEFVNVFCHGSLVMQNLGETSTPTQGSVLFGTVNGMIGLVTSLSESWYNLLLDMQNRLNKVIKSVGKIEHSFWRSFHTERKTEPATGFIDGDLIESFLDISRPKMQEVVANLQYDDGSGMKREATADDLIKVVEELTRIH", "assay": "Ratiometric EGFP:mCherry flow cytometry degradation assay, 18 h"}, "[5]": {"system": "Jurkat cells (TRIM28-transduced and untransduced)", "assay": "CellTiter-Glo cell viability assay", "format": "cell-based, human", "settings": "100 pM – 10 μM, 24 h", "procedure": "Figure S22. CellTiter-Glo assay to assess cell viability of Jurkat cells lentivirally transduced with TRIM28 with either N-terminal or C-terminal WEIS degron tag (or untagged control) and HiBit peptide tag, then incubated (alongside untransduced Jurkat cells) with a concentration curve of […]\n(1 picture or pasted object on this page, not shown here) […]\nmixed with the Cas9 RNPs and then electroporated using a 4D-Nucleofector (Lonza) on pulse code CL-120. Estimation of knockout efficiency was performed by PCR amplification of the sgRNA target site using primers described in ‘PCR primers for amplifying sgRNA target site’ below. PCR products were Sanger sequenced and editing efficiency was assessed using the online […]\nHiBit and CellTiter-Glo® (CTG) Assays […]\nspanning 169 pM–10 μM (final assay concentration). […]\nHiBit signal was measured by adding 25 µL of the lytic detection reagent from the Nano-Glo® HiBiT Extracellular Detection System (Promega), prepared as per manufacturer protocol. […] Both assays were read using PHERAstar microplate luminescence reader (BMG Labtech). The data have been expressed as % of DMSO control and represent three independent biological replicates. […]\nsignal was measured by adding 40 µL of the Nano-Glo lytic detection reagent (Promega),"}, "MM.1S cells": {"system": "MM.1S cells", "assay": "TMTpro quantitative proteomics, 16 h", "settings": "10 μM", "protocol": "(§1) Quantitative proteomics screens were carried out in untransduced Jurkat cells, embryonic stem cells (ESCs), and the multiple myeloma cell line, MM.1S. We used Jurkat cells, as our work up to this point had employed this cell line, and we selected ESCs and MM.1S cells as they express known CRBN neosubstrates, including IKZF1, IKZF3, RAB28, RNF166, SALL4, ZFP91, and ZNF827.\n(§2) Proteomics - cell lysis and protein digestion\n(§3) The viability of Jurkat cells was tested after 16-h treatment with corresponding chemicals\n(§4) viable cells in each condition. Next, ~10^7 cells per condition were collected by centrifugation (1000 rpm), washed twice with ice-cold PBS, and lysed in RIPA buffer [50 mM HEPES pH 7.4, 150 mM NaCl, 1% sodium deoxycholate, 1% NP-40, 0.1% SDS, 10 mM sodium pyrophosphate, 10 mM β-glycerophosphate, 2.5 mM MgCl2, 200 µM TCEP, phosphatase and protease inhibitor cocktail (in-house)], to produce whole cell extracts. Whole-cell extracts were sonicated, and protein concentrations were determined using the Bradford assay. Protein extracts (100 µg) were subjected to disulfide bond reduction with 5 mM TCEP (10 min) and alkylation with 25 mM chloroacetamide (20 min). Methanol–chloroform precipitation was performed prior to protease digestion. […]"}, "[6]": {"target": "T3, ZF-EGFP fusion protein with the HEIP, AEVK, WEIS, or WT ZF degron (Homo sapiens, UniProt Q9UKT9, N149E/Q147W/Q150I)", "T3 construct": "The degron spans residues 130–189 of IKZF3; expressed in transfected cells; host or cells: Jurkat, lentivirally transduced, presorted mCherry+", "assay": "Western blot for ZF-EGFP fusion protein", "format": "cell-based", "settings": "transduced Jurkat, 18 h"}, "[7]": {"target": "WEIS mutant ZF degron fused to EGFP (Homo sapiens, UniProt Q96SW2+Q9UKT9, N149E/Q147W/Q150I)", "sequence (Q9UKT9 130-189 Q147W/N149E/Q150I)": "as the sequence (Q9UKT9 130-189 Q147F/N149E/Q150V/S154P) above, with F18W, V21I, P25S counted along it", "sequence (Q96SW2 whole entry, the tested form may be a part)": "as the sequence (Q96SW2 whole entry, the tested form may be a part) above", "sequence (Q16531 whole entry partner, the tested form may be a part)": "as the sequence (Q16531 whole entry partner, the tested form may be a part) above", "assay": "Ratiometric EGFP:mCherry flow cytometry degradation assay, 18 h"}, "[8]": {"target": "T4, WEIS-EGFP degron in Jurkat cells (Homo sapiens, UniProt Q96SW2+Q9UKT9, N149E/Q147W/Q150I)", "T4 construct": "pLVX-Sprout-IKZF3 130-189aa Q147W N149E Q150I (WEIS); expressed in transfected cells", "assay": "GFP degradation flow cytometry assay with proteasome inhibitor carfilzomib", "format": "cell-based", "settings": "carfilzomib (1 μM) pre-incubation; 1-24 h"}, "HA-NanoLuc-WEIS [9]": {"target": "T5, HA-NanoLuc-WEIS (Homo sapiens, UniProt Q96SW2+Q9UKT9, N149E/Q147W/Q150I)", "T5 construct": "pLVX-Sprout-IKZF3 130-189aa Q147W N149E Q150I (WEIS); expressed in transfected cells; host or cells: HEK293T, lentiviral transduction, puromycin-selected", "T5 sequence (Q9UKT9 130-189 Q147W/N149E/Q150I)": "as the sequence (Q9UKT9 130-189 Q147F/N149E/Q150V/S154P) above, with F18W, V21I, P25S counted along it", "T5 sequence (Q96SW2 whole entry)": "as the sequence (Q96SW2 whole entry, the tested form may be a part) above", "T5 sequence (Q16531 whole entry partner)": "as the sequence (Q16531 whole entry partner, the tested form may be a part) above", "assay": "HA antibody immunoblotting in HEK293T cells", "format": "cell-based", "settings": "18 h, Western blot"}, "endogenous IKZF1": {"target": "T6, endogenous IKZF1 (Homo sapiens, UniProt Q13422+Q96SW2)", "T6 construct": "endogenous in cells; host or cells: Jurkat (untransduced for immunostaining; WEIS-EGFP-transduced for the blot)", "assay": "Western blot for IKZF1 in WEIS-EGFP Jurkat cells", "format": "cell-based", "settings": "Jurkat transduced with EGFP-WEIS, 18 h"}, "[10]": {"target": "T7, WEIS-EGFP in 3T3 mouse cells (UniProt Q8C7D2+Q9UKT9, N149E/Q147W/Q150I)", "T7 construct": "IKZF3 130aa-142aa 170-189aa fused to EGFP; EGFP (fusion partner, via a linker); expressed in transfected cells; host or cells: 3T3 mouse cells, lentivirally transduced with WEIS-EGFP-IRES-mCherry (Artichoke-derived, Addgene #73320)", "assay": "EGFP/mCherry flow cytometry degradation assay in 3T3 cells", "format": "cell-based", "settings": "18 h; compared to human cells", "procedure": "It is also noteworthy that this system is not yet optimized for use in mouse cells, as mouse cereblon contains a key V388I mutation that prevents IMiD-induced recruitment of ZF neosubstrates. […] We anticipate that mutations could be introduced to this degron to make it mouse-compatible for future in vivo studies.\nFigure S24. Dose response curve for 3T3 mouse cells lentivirally transduced with WEIS-EGFP-\nIRES-mCherry incubated with a concentration curve of compound 23 (1pM – 10 μM) for 18 h and\nanalyzed by flow cytometry.\n(1 picture or pasted object on this page, not shown here)"}, "[11]": {"system": "embryonic stem cells (ESCs)", "assay": "TMTpro quantitative proteomics, 16 h", "settings": "10 μM", "protocol": "as §1, §2, §3, §4"}, "HA-NanoLuc-WEIS [12]": {"target": "T5, HA-NanoLuc-WEIS", "assay": "Nano-Glo luminescence assay in HEK293T cells", "format": "cell-based", "settings": "NanoGlo", "protocol": "To this end, a nuclear protein, CDK9, and a cytoplasmic protein, HPRT1, were selected, in addition to a well-characterized enzyme capable of generating bioluminescence, NanoLuc. , Fusion constructs comprising a POI with an N-terminal HA tag linked to the POI by two glycine residues and a C-terminal WEIS motif linked to the POI by a flexible [sequence] linker region were exogenously expressed in HEK293T cells.\nCompound 23 (10 mM stock in DMSO) was serially diluted 10-fold to create an 5-point dilution spanning 1n M–10 μM (final assay concentration) and an untreated control, with all concentrations at 0.1% DMSO. HEK293T cells transduced with HA-NanoLuc-WEIS lentiviral vectors were seeded in white, opaque, flat-bottom 96-well plate (Falcon) at 2 × 10^4 cells per well in 40 µL\nincubating at rt for 3 minutes, then reading using an EnVision multimode plate reader\n(PerkinElmer). […] Three biological repeats\nwere carried out for this assay, with each biological replicate plate comprising three replicate"}}, "data": [{"smiles": "CC(C)(C)c1ccc2c(c1)C(=O)N(C1CCC(=O)NC1=O)C2=O", "note": "(centres unmarked) [Compound 19]", "values": [{"measurement": "degradation of EGFP tagged with HEIP degron (Western blot)", "setting": "[1]", "result": "complete degradation"}, {"measurement": "degradation of EGFP tagged with AEVK degron (Western blot)", "setting": "[2]", "result": "complete degradation"}, {"measurement": "DC50", "setting": "[3]; AEVK, Jurkat, 18 h", "result": 0.0275, "unit": "µM"}, {"measurement": "pDC50", "setting": "[3]; AEVK, Jurkat, 18 h", "result": 7.56}, {"measurement": "Selectivity (WT/mutant)", "setting": "[3]; DC50(WT)/DC50(AEVK)", "result": 28}, {"measurement": "Selectivity (WT/mutant)", "setting": "[4]; DC50(WT)/DC50(FEVP)", "result": 15.1}, {"measurement": "DC50", "setting": "[4]; FEVP, Jurkat, 18 h", "result": 0.0501, "unit": "µM"}, {"measurement": "pDC50", "setting": "[4]; FEVP, Jurkat, 18 h", "result": 7.30}]}, {"smiles": "CN1CCN(c2ccc3c(c2)C(=O)N(C2CCC(=O)NC2=O)C3=O)CC1", "note": "(centres unmarked) [Compound 23]", "values": [{"measurement": "cell viability", "setting": "[5]", "result": "did not affect the cell viability"}, {"measurement": "proteins degraded (quantitative proteomics)", "setting": "MM.1S cells", "result": "did not significantly (Welch’s t test) induce degradation of any protein"}, {"measurement": "degradation of EGFP tagged with WEIS degron (Western blot)", "setting": "[6]", "result": "complete degradation"}, {"measurement": "Selectivity (WT/mutant)", "setting": "[7]; DC50(WT)/DC50(WEIS)", "result": 35}, {"measurement": "DC50", "setting": "[7]; WEIS, Jurkat, 18 h", "result": 0.0182, "unit": "µM"}, {"measurement": "pDC50", "setting": "[7]; WEIS, Jurkat, 18 h", "result": 7.74}, {"measurement": "WEIS-EGFP degradation with carfilzomib", "setting": "[8]", "result": "rescued"}, {"measurement": "D max", "setting": "HA-NanoLuc-WEIS [9]", "result": 89, "unit": "%"}, {"measurement": "DC50", "setting": "HA-NanoLuc-WEIS [9]", "result": 0.0478, "unit": "µM"}, {"measurement": "degradation of endogenous IKZF1 (Western blot)", "setting": "endogenous IKZF1", "result": "showed no degradation"}, {"measurement": "WEIS-EGFP degradation in 3T3 mouse cells", "setting": "[10]", "result": "modest levels of WEIS-EGFP degradation"}, {"measurement": "proteins degraded (quantitative proteomics)", "setting": "[11]", "result": "did not induce any protein degradation"}, {"measurement": "D max", "setting": "HA-NanoLuc-WEIS [12]; 6 h", "result": 53, "unit": "%"}, {"measurement": "D max", "setting": "HA-NanoLuc-WEIS [12]; 18 h", "result": 35, "unit": "%"}, {"measurement": "DC50", "setting": "HA-NanoLuc-WEIS [12]; 18 h", "result": 0.29, "unit": "µM"}]}]}
